From PubChem BioAssay (NCI)
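Protocol summary: plate cells (96-well), add compound at 5 concentrations, incubate 48 h, interpolate endpoints linearly. Here, GI50 denotes the concentration required for 50% inhibition of growth. At the TGI there is no net growth.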

Experiments:
Assay in all cases: NCI tumour cell line growth inhibition, 48 h
K-562 leukemia = tested on: K-562 leukemia
HCT-15 colon = tested on: HCT-15 colon
OVCAR-3 ovarian = tested on: OVCAR-3 ovarian
IGROV1 ovarian = tested on: IGROV1 ovarian
ACHN renal = tested on: ACHN renal
SW-620 colon = tested on: SW-620 colon
HL-60(TB) leukemia = tested on: HL-60(TB) leukemia
UO-31 renal = tested on: UO-31 renal
HT29 colon = tested on: HT29 colon
NCI-H226 lung = tested on: NCI-H226 lung
NCI-H522 lung = tested on: NCI-H522 lung
LOX IMVI melanoma = tested on: LOX IMVI melanoma
SK-MEL-28 melanoma = tested on: SK-MEL-28 melanoma
SK-MEL-2 melanoma = tested on: SK-MEL-2 melanoma
MALME-3M melanoma = tested on: MALME-3M melanoma
A498 renal = tested on: A498 renal
MOLT-4 leukemia = tested on: MOLT-4 leukemia
NCI/ADR-RES ovarian = tested on: NCI/ADR-RES ovarian
HOP-62 NSCLC = tested on: HOP-62 NSCLC
UACC-62 melanoma = tested on: UACC-62 melanoma
NCI-H23 lung = tested on: NCI-H23 lung
786-0 renal = tested on: 786-0 renal
SNB-75 CNS = tested on: SNB-75 CNS
CAKI-1 renal = tested on: CAKI-1 renal
CCRF-CEM leukemia = tested on: CCRF-CEM leukemia
HCC-2998 colon = tested on: HCC-2998 colon
HS 578T breast = tested on: HS 578T breast
SF-268 CNS = tested on: SF-268 CNS
SF-295 CNS = tested on: SF-295 CNS
MDA-MB-435 = tested on: MDA-MB-435
RXF 393 renal = tested on: RXF 393 renal
TK-10 renal = tested on: TK-10 renal
MDA-MB-231 breast = tested on: MDA-MB-231 breast
RPMI-8226 leukemia = tested on: RPMI-8226 leukemia
SN12C renal = tested on: SN12C renal
KM12 colon = tested on: KM12 colon
DU-145 prostate = tested on: DU-145 prostate
T-47D breast = tested on: T-47D breast
OVCAR-4 ovarian = tested on: OVCAR-4 ovarian
SF-539 CNS = tested on: SF-539 CNS
OVCAR-5 ovarian = tested on: OVCAR-5 ovarian
OVCAR-8 ovarian = tested on: OVCAR-8 ovarian
HOP-92 NSCLC = tested on: HOP-92 NSCLC
NCI-H460 lung = tested on: NCI-H460 lung
SK-MEL-5 melanoma = tested on: SK-MEL-5 melanoma
MCF7 breast = tested on: MCF7 breast
UACC-257 melanoma = tested on: UACC-257 melanoma
A549 NSCLC = tested on: A549 NSCLC
COLO 205 colon = tested on: COLO 205 colon
SR leukemia = tested on: SR leukemia
SK-OV-3 ovarian = tested on: SK-OV-3 ovarian
MDA-MB-468 breast = tested on: MDA-MB-468 breast
SNB-19 CNS = tested on: SNB-19 CNS
EKVX NSCLC = tested on: EKVX NSCLC
M14 melanoma = tested on: M14 melanoma
U251 CNS = tested on: U251 CNS
PC-3 prostate = tested on: PC-3 prostate
HCT-116 colon = tested on: HCT-116 colon
BT-549 breast = tested on: BT-549 breast

## COc1ccc(CN2[C@@H](C(=O)NCc3ccc(C(=O)NO)cc3)Cc3c([nH]c4ccccc34)[C@@H]2C)cc1
K-562 leukemia
  GI50: 1.93 µM
  TGI: > 21 µM
HCT-15 colon
  GI50: 4.56 µM
  TGI: 19.8 µM
OVCAR-3 ovarian
  GI50: 2.51 µM
  TGI: 7.84 µM
IGROV1 ovarian
  GI50: 2.56 µM
  TGI: 5.78 µM
ACHN renal
  GI50: 3.67 µM
  TGI: 9.07 µM
SW-620 colon
  GI50: 2.34 µM
  TGI: 11.2 µM
HL-60(TB) leukemia
  GI50: 2.65 µM
  TGI: 15.4 µM
UO-31 renal
  GI50: 2.93 µM
  TGI: 6.19 µM
HT29 colon
  GI50: 3.84 µM
  TGI: > 21 µM
NCI-H226 lung
  GI50: 1.98 µM
  TGI: 10.2 µM
NCI-H522 lung
  GI50: 1.43 µM
  TGI: 5.35 µM
LOX IMVI melanoma
  GI50: 3.23 µM
  TGI: 6.3 µM
SK-MEL-28 melanoma
  GI50: 2.6 µM
  TGI: 8.76 µM
SK-MEL-2 melanoma
  GI50: 3.32 µM
  TGI: 7.3 µM
MALME-3M melanoma
  GI50: 0.874 µM
  TGI: 4.86 µM
A498 renal
  GI50: 0.822 µM
  TGI: 6.26 µM
MOLT-4 leukemia
  GI50: 1.6 µM
  TGI: > 21 µM
NCI/ADR-RES ovarian
  GI50: 8.01 µM
  TGI: > 21 µM
HOP-62 NSCLC
  GI50: 2.56 µM
  TGI: 7.92 µM
UACC-62 melanoma
  GI50: 2.08 µM
  TGI: 5.29 µM
NCI-H23 lung
  GI50: 3.33 µM
  TGI: 7.51 µM
786-0 renal
  GI50: 5.15 µM
  TGI: > 21 µM
SNB-75 CNS
  GI50: 1.23 µM
  TGI: 7.27 µM
CAKI-1 renal
  GI50: 2.83 µM
  TGI: 7.86 µM
CCRF-CEM leukemia
  GI50: 1.27 µM
  TGI: > 21 µM
HCC-2998 colon
  GI50: 2.72 µM
  TGI: 5.81 µM
HS 578T breast
  GI50: 1.26 µM
  TGI: 13 µM
SF-268 CNS
  GI50: 4.21 µM
  TGI: 11.2 µM
SF-295 CNS
  GI50: 3.02 µM
  TGI: 6.21 µM
MDA-MB-435
  GI50: 1.27 µM
  TGI: 5.56 µM
RXF 393 renal
  GI50: 0.724 µM
  TGI: 3.71 µM
TK-10 renal
  GI50: 2.6 µM
  TGI: 11.4 µM
MDA-MB-231 breast
  GI50: 2.67 µM
  TGI: 5.73 µM
RPMI-8226 leukemia
  GI50: 3.03 µM
  TGI: > 21 µM
SN12C renal
  GI50: 3.88 µM
  TGI: 13 µM
KM12 colon
  GI50: 3.3 µM
  TGI: 7.85 µM
DU-145 prostate
  GI50: 4.41 µM
  TGI: 17.8 µM
T-47D breast
  GI50: 3.56 µM
  TGI: 12.8 µM
OVCAR-4 ovarian
  GI50: 4.58 µM
  TGI: > 21 µM
SF-539 CNS
  GI50: 2.7 µM
  TGI: 7.12 µM
OVCAR-5 ovarian
  GI50: 1.43 µM
  TGI: 8.11 µM
OVCAR-8 ovarian
  GI50: 2.44 µM
  TGI: 8.91 µM
HOP-92 NSCLC
  GI50: 2.2 µM
  TGI: 6.25 µM
NCI-H460 lung
  GI50: 2.86 µM
  TGI: 10.6 µM
SK-MEL-5 melanoma
  GI50: 2.96 µM
  TGI: 6.02 µM
MCF7 breast
  GI50: 3.02 µM
  TGI: 13.8 µM
UACC-257 melanoma
  GI50: 2.19 µM
  TGI: 14.4 µM
A549 NSCLC
  GI50: 4.3 µM
  TGI: 16.5 µM
COLO 205 colon
  GI50: 3.59 µM
  TGI: 8.33 µM
SR leukemia
  GI50: 0.335 µM
  TGI: > 21 µM
SK-OV-3 ovarian
  GI50: 2.58 µM
  TGI: 6.14 µM
MDA-MB-468 breast
  GI50: 0.861 µM
  TGI: 4.45 µM
SNB-19 CNS
  GI50: 3.49 µM
  TGI: 8.5 µM
EKVX NSCLC
  GI50: 2.24 µM
  TGI: 13.5 µM
M14 melanoma
  GI50: 4.05 µM
  TGI: > 21 µM
U251 CNS
  GI50: 2.88 µM
  TGI: 8.88 µM
PC-3 prostate
  GI50: 3.02 µM
  TGI: > 21 µM
HCT-116 colon
  GI50: 1.47 µM
  TGI: > 21 µM
BT-549 breast
  GI50: 5.95 µM
  TGI: 15.6 µM
